Columns and labels:
Assay type in all cases: in vivo
Spodoptera litura = assay: Insecticidal activity, spray on pre-infested radish plants: Spodoptera litura; settings: 144 h, spray, 6 days, read-out: fatality rate on Spodoptera litura
In short: (§1)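 First, 30-40 pests are transferred onto 12-15 day old radish plants on a cut leaf, and the soil is covered with sand. The compound solution is then sprayed and left to dry for 1 hour before a mesh cover is fitted. Insect mortality is read visually after 6 days at 25° C and 70% relative humidity.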

Plutella xylostella = assay: Insecticidal activity, spray on pre-infested radish plants: Plutella xylostella; settings: Plutella xylostella, 144 h, spray, 6 days, read-out: fatality rate on Plutella xylostella
In short: as §1

Cnaphalocrocis medinalis = assay: Insecticidal activity, spray on pre-infested radish plants: Cnaphalocrocis medinalis; settings: 144 h, spray, 6 days, read-out: fatality rate on Cnaphalocrocis medinalis
In short: (§2)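 Three replicate units, each a small open container holding 12-15 day old radish plants carrying 30-40 insects, receive a spray of test solution and dry for 1 hour. Kill rate is counted visually after 6 days under a black mesh at 25° C, 70% RH.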

Pieris rapae = assay: Insecticidal activity, spray on pre-infested radish plants: Pieris rapae; settings: 144 h, spray, 6 days, read-out: fatality rate on Pieris rapae
In short: as §2

Mythimna separata = assay: Insecticidal activity, spray on pre-infested radish plants: Mythimna separata; settings: Mythimna separata, 144 h, spray, 6 days, read-out: fatality rate on Mythimna separata
In short: as §1

[1] = system: Frankliniella occidentalis; assay: Insecticidal activity, spray on pre-infested radish plants: Frankliniella occidentalis; settings: Frankliniella occidentalis, 144 h, spray, 6 days, read-out: fatality rate on Frankliniella occidentalis
In short: as §1

Tetranychus cinnabarinus = assay: Acaricidal activity, slide immersion of female adult mites: Tetranychus cinnabarinus; settings: immersion 5 seconds, checked after 24 hours, read-out: fatality rate on Tetranychus cinnabarinus
In short: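 Female adult mites stuck dorsally on tape on slides (4 rows of 10), dipped 5 s in test solution, excess blotted, incubated 24 h. Mites with immobile feet on brush touch scored dead; fatality rate calculated.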

Chilo suppressalis = assay: Insecticidal activity, spray on pre-infested radish plants: Chilo suppressalis; settings: Chilo suppressalis, 144 h, spray, 6 days, read-out: fatality rate on Chilo suppressalis
In short: as §1

Cc1cc(C2=NOC(c3cc(F)c(F)c(F)c3)(C(F)(F)F)C2)ccc1C(=O)NCCc1ncc(C(F)(F)F)cc1Cl (stereo not drawn) [Compound 20]
> 80%: pest or weed control at 0.1 ppm (Spodoptera litura) | pest or weed control at 1 ppm (Spodoptera litura) | pest or weed control at 10 ppm (Spodoptera litura) | pest or weed control at 0.1 ppm (Plutella xylostella) | pest or weed control at 1 ppm (Plutella xylostella) | pest or weed control at 10 ppm (Plutella xylostella) | pest or weed control at 0.1 ppm (Cnaphalocrocis medinalis) | pest or weed control at 1 ppm (Cnaphalocrocis medinalis) | pest or weed control at 10 ppm (Cnaphalocrocis medinalis) | pest or weed control at 0.1 ppm (Pieris rapae) | pest or weed control at 1 ppm (Pieris rapae) | pest or weed control at 10 ppm (Pieris rapae) | pest or weed control at 0.1 ppm (Mythimna separata) | pest or weed control at 1 ppm (Mythimna separata) | pest or weed control at 10 ppm (Mythimna separata) | pest or weed control at 1 ppm [1] | pest or weed control at 10 ppm [1] | pest or weed control at 25 ppm [1] | pest or weed control at 1 ppm (Tetranychus cinnabarinus) | pest or weed control at 10 ppm (Tetranychus cinnabarinus) | pest or weed control at 25 ppm (Tetranychus cinnabarinus) | pest or weed control at 0.1 ppm (Chilo suppressalis) | pest or weed control at 1 ppm (Chilo suppressalis) | pest or weed control at 10 ppm (Chilo suppressalis)

Cc1cc(C2=NOC(c3cc(F)c(F)c(F)c3)(C(F)(F)F)C2)ccc1C(=O)NCCc1ccc(Cl)nc1 (stereo not drawn) [Compound 16]
> 80%: pest or weed control at 0.1 ppm (Spodoptera litura) | pest or weed control at 1 ppm (Spodoptera litura) | pest or weed control at 10 ppm (Spodoptera litura) | pest or weed control at 0.1 ppm (Plutella xylostella) | pest or weed control at 1 ppm (Plutella xylostella) | pest or weed control at 10 ppm (Plutella xylostella) | pest or weed control at 0.1 ppm (Cnaphalocrocis medinalis) | pest or weed control at 1 ppm (Cnaphalocrocis medinalis) | pest or weed control at 10 ppm (Cnaphalocrocis medinalis) | pest or weed control at 0.1 ppm (Pieris rapae) | pest or weed control at 1 ppm (Pieris rapae) | pest or weed control at 10 ppm (Pieris rapae) | pest or weed control at 0.1 ppm (Mythimna separata) | pest or weed control at 1 ppm (Mythimna separata) | pest or weed control at 10 ppm (Mythimna separata) | pest or weed control at 1 ppm [1] | pest or weed control at 10 ppm [1] | pest or weed control at 25 ppm [1] | pest or weed control at 1 ppm (Tetranychus cinnabarinus) | pest or weed control at 10 ppm (Tetranychus cinnabarinus) | pest or weed control at 25 ppm (Tetranychus cinnabarinus) | pest or weed control at 0.1 ppm (Chilo suppressalis) | pest or weed control at 1 ppm (Chilo suppressalis) | pest or weed control at 10 ppm (Chilo suppressalis)
